Assay results as given in the NIST ThermoML archive (doi:10.1016/j.jct.2019.04.010).

Experiment: xn = mol fraction of the nth substance listed
Conditions: 100 kPa, Liquid; for viscosity: Concentric cylinders viscometry; for mass density: Vibrating tube method

CCCCn1cc[n+](C)c1.O=[N+]([O-])[O-] [1-butyl-3-methylimidazolium nitrate] + CCC(C)O
Conditions	mass density [kg/m3]	viscosity [mPa·s]
293.15 K, x1 = 0.0813	860.4	5.41
293.15 K, x1 = 0.1595	904.7	7.32
293.15 K, x1 = 0.2402	944.9	10.17
293.15 K, x1 = 0.35	991.2	15.43
293.15 K, x1 = 0.4403	1023.7	21.65
293.15 K, x1 = 0.5597	1060.8	33.63
293.15 K, x1 = 0.6503	1085.4	46.65
293.15 K, x1 = 0.7398	1107	65
293.15 K, x1 = 0.8502	1130.6	100.4
293.15 K, x1 = 0.9399	1147.7	156.4
293.15 K, x1 = 1	1158.3	223.54
298.15 K, x1 = 0.0813	856.7	4.47
298.15 K, x1 = 0.1595	901.2	6.12
298.15 K, x1 = 0.2402	941.3	8.37
298.15 K, x1 = 0.35	987.7	12.73
298.15 K, x1 = 0.4403	1020.3	17.92
298.15 K, x1 = 0.5597	1057.5	27.57
298.15 K, x1 = 0.6503	1082.1	38.2
298.15 K, x1 = 0.7398	1103.8	52.3
298.15 K, x1 = 0.8502	1127.6	79.2
298.15 K, x1 = 0.9399	1144.7	119
298.15 K, x1 = 1	1155.2	168.97
303.15 K, x1 = 0.0813	852.6	3.85
303.15 K, x1 = 0.1595	897.3	5.31
303.15 K, x1 = 0.2402	937.4	7.21
303.15 K, x1 = 0.35	984.1	10.87
303.15 K, x1 = 0.4403	1016.8	15.15
303.15 K, x1 = 0.5597	1054.2	22.92
303.15 K, x1 = 0.6503	1078.9	30.82
303.15 K, x1 = 0.7398	1100.8	41.3
303.15 K, x1 = 0.8502	1124.6	62.3
303.15 K, x1 = 0.9399	1141.8	92
303.15 K, x1 = 1	1152.3	125.36
308.15 K, x1 = 0.0813	848.6	3.32
308.15 K, x1 = 0.1595	893.3	4.58
308.15 K, x1 = 0.2402	933.6	6.25
308.15 K, x1 = 0.35	980.4	9.38
308.15 K, x1 = 0.4403	1013.3	12.93
308.15 K, x1 = 0.5597	1050.9	19.27
308.15 K, x1 = 0.6503	1075.7	25.57
308.15 K, x1 = 0.7398	1097.6	33.2
308.15 K, x1 = 0.8502	1121.7	48.8
308.15 K, x1 = 0.9399	1138.9	70.7
308.15 K, x1 = 1	1149.3	96.74
313.15 K, x1 = 0.0813	844.6	2.83
313.15 K, x1 = 0.1595	889.5	3.98
313.15 K, x1 = 0.2402	929.8	5.46
313.15 K, x1 = 0.35	976.9	8.16
313.15 K, x1 = 0.4403	1009.9	11.18
313.15 K, x1 = 0.5597	1047.7	16.39
313.15 K, x1 = 0.6503	1072.7	21.49
313.15 K, x1 = 0.7398	1094.7	28
313.15 K, x1 = 0.8502	1118.8	40
313.15 K, x1 = 0.9399	1136.1	56.6
313.15 K, x1 = 1	1146.5	75.12
318.15 K, x1 = 0.0813	840.2	2.44
318.15 K, x1 = 0.1595	885.3	3.47
318.15 K, x1 = 0.2402	925.8	4.81
318.15 K, x1 = 0.35	973.4	7.15
318.15 K, x1 = 0.4403	1006.6	9.72
318.15 K, x1 = 0.5597	1044.5	14.08
318.15 K, x1 = 0.6503	1069.6	18.26
318.15 K, x1 = 0.7398	1091.8	23.5
318.15 K, x1 = 0.8502	1116.1	33
318.15 K, x1 = 0.9399	1133.5	44.4
318.15 K, x1 = 1	1143.8	56.28
323.15 K, x1 = 0.0813	836	2.16
323.15 K, x1 = 0.1595	881.2	3.06
323.15 K, x1 = 0.2402	921.9	4.26
323.15 K, x1 = 0.35	969.7	6.32
323.15 K, x1 = 0.4403	1003.1	8.53
323.15 K, x1 = 0.5597	1041.3	12.21
323.15 K, x1 = 0.6503	1066.5	15.68
323.15 K, x1 = 0.7398	1088.9	19.7
323.15 K, x1 = 0.8502	1113.4	27.2
323.15 K, x1 = 0.9399	1130.9	36.6
323.15 K, x1 = 1	1141.2	45.17
